According to EP4775582A1, “MACROCYCLIC COMPOUND AND ANTIBODY-DRUG CONJUGATE THEREOF” (Genfleet Therapeutics (Shanghai) Inc., priority 2023, dated 2025):
Converted amounts (≈) assume the structure as drawn. Where two headings read alike, the source gives them in different places.

Assays:
KRAS G12V-cRAF = KRAS G12V-cRAF (Homo sapiens, UniProt P01116+P62937, G12V); assay: Assay for binding of KRAS to cRAF (HTRF, with Cyclophilin A), KRAS G12V
Procedure: (§3) The plate was centrifuged at 1000 rpm for 1 min and then incubated in the thermostatic incubator at 20 °C for 30 min. […] The plate was centrifuged at 1000 rpm for 1 min and then incubated in the thermostatic incubator at 20 °C for 60 min. […] The working solution was added to the aforementioned assay plate at 5 µL/well. The plate was centrifuged at 1000 rpm for 1 min and then incubated in the thermostatic incubator at 20 °C for 60 min.

AsPC-1 cells = assay: 3D cell proliferation assay (CellTiter Glo-3D), AsPC-1; type: cell-based, human
Procedure, shortened: (§1)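 IC50 values come from four-parameter fits of inhibition rate against log compound concentration, using CellTiter-Glo luminescence read after 5 days' exposure. AsPC-1 and NCI-H441 were plated at 800 cells per well in low-serum (2% FBS) medium. Compound was dosed the day after seeding, with incubation at 37 °C, 5% CO2.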

AsPC-1 p-ERK = assay: Cell p-ERK assay (HTRF), AsPC-1 cells; type: cell-based, human
Procedure, shortened: (§2)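 Phospho-ERK (T202/Y204) was measured by HTRF in lysates after 3 h compound treatment at 37 °C. Cells had been plated the previous day at 20000 per well for NCI-H441 and 10000 per well for AsPC-1. Four-parameter dose-response fitting of % inhibition gave IC50 values.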

NCI-H441 cells = assay: 3D cell proliferation assay (CellTiter Glo-3D), NCI-H441; type: cell-based, human; settings: NCI-H441 cells (KRAS G12V), 2% FBS, 5 days, read-out: H441 AP IC50
Procedure, shortened: as §1

H441 p-ERK = assay: Cell p-ERK assay (HTRF), NCI-H441 cells; type: cell-based, human; settings: NCI-H441 cells (KRAS G12V), 3 h incubation
Procedure, shortened: as §2

KRAS WT-cRAF = KRAS WT-cRAF (Homo sapiens, UniProt P01116+P62937); assay: Assay for binding of KRAS to cRAF (HTRF, with Cyclophilin A), KRAS WT
Procedure: as §3

[1] = Solubility experiment (HPLC, external standard); type: physicochemical; settings: ph 7.4 medium, pH 7.4, pH 7.4 medium, 37 °C, 24 h
Procedure: This experiment was intended to determine the solubility of the compounds in media at different pH values. The materials used in the experiment included: a pH 1.2 medium, a pH 4.5 medium, a pH 7.4 medium, and a diluent (acetonitrile/water = 50/50). 1. The preparation methods for media are as follows:
One centrifuge tube (containing about 2 mg of the test sample) was taken, 1 mL of DMSO was added to completely dissolve the test sample, and the mixture was marked as stock-1. 0.2 mL of stock-1 was transferred into a 10 mL volumetric flask, and then the 50:50 (acetonitrile/water) solution was added to bring the volume to the mark, so as to give a control solution.
Additionally, centrifuge tubes each containing about 1 mg of the test sample were taken, 1 mL of the corresponding medium solution was then added, and the tubes were shaken on a 37 °C water bath shaker for 24 h. After centrifugation for 3 times (centrifugation time: 10 min, rotation speed: 12000 rpm), 0.2 mL of the supernatants were taken, 0.8 mL of the diluent (acetonitrile/water = 50/50) was added to each tube, and the mixtures were vortexed and mixed well to give solubility samples.
The solubility samples described above and the control solution were sequentially analyzed by high performance liquid chromatography. The chromatographic conditions are as follows:
The actual concentration of the compound in each solubility sample was calculated according to an external standard method. Concentration (μg/mL) = (ASample × CControl × DSample)/(AControl)∗1000; [formula] Asample: the peak area of the target peak in the sample solution; Ccontrol: the concentration (mg/mL) of the control solution; Dsample: the dilution factor of the sample solution; Acontrol: the peak area of the target peak in the control solution.

[2] = read-out: KRAS G12V-cRAF binding assay, GPPNP-KRAS G12V, IC50 values
[3] = Homo sapiens, ASPC1, 120 h, AsPC-1 cells (KRAS G12D), 3D, 2% FBS, 5 days, read-out: AsPC-1 AP IC50
[4] = Homo sapiens, ASPC1, AsPC-1 cells (KRAS G12D), 3 h incubation, read-out: AsPC-1 p-ERK IC50
[5] = read-out: KRAS WT-cRAF binding assay, GPPNP-KRAS WT, IC50 values
[6] = KRAS G12V-cRAF binding assay(nM), GPPNP-KRAS G12V, IC50 values
[7] = KRAS WT-cRAF binding assay(nM), GPPNP-KRAS WT, IC50 values

KRAS WT-cRAF, sequence (P01116 1-188 isoform P01116-2): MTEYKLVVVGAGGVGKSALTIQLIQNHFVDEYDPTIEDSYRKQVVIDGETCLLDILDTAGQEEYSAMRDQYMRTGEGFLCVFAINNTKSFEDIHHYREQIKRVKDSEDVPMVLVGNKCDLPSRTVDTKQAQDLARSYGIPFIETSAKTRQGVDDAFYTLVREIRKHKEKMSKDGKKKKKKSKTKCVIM
KRAS WT-cRAF, sequence (P62937 whole entry): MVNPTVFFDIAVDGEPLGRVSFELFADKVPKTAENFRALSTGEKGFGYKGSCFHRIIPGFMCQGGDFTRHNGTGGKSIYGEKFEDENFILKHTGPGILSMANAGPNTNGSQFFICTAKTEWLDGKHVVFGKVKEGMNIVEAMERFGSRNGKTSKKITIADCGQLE
KRAS G12V-cRAF, sequence (P01116 1-188 isoform P01116-2 G12V): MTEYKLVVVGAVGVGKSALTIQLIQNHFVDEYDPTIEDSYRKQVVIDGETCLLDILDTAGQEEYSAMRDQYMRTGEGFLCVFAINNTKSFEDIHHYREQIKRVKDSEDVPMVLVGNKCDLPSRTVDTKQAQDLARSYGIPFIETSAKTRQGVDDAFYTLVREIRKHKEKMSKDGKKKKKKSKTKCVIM
KRAS G12V-cRAF, sequence (P62937 whole entry): as the sequence (P62937 whole entry) above

SMILES	IC50 (AsPC-1 cells; [3])	IC50 (AsPC-1 p-ERK; [4])	IC50 (NCI-H441 cells; Homo sapiens, 120 h)	IC50 (H441 p-ERK; Homo sapiens)	IC50 (KRAS G12V-cRAF; [2])	IC50 (KRAS WT-cRAF; [5])	also measured
CCn1c(-c2cc(C#CCN3CCC(C#N)(CN)CC3)c[n+]([O-])c2[C@H](C)OC)c2c3cc(ccc31)-c1csc(n1)C[C@H](NC(=O)[C@H]1[C@H](C)[C@@H]1C)C(=O)N1CCC[C@H](N1)C(=O)OCC(C)(C)C2 (atropisomer, axis not shown; (Ra)) [Compound Z57, 5-(3-(4-(aminomethyl)-4-cyanopiperidin-1-yl)prop-1-yn-1-yl)-(Ra)-3-((6^3S,4S,Z)-4-((1r,2R,3S)-2,3-dimethylcyclopropane-1-carboxamido)-1^1-ethyl-10,10-dimethyl-5,7-dioxo-6^1,6^2,6^3,6^4,6^5,6^6-hexahydro-1^1H-8-oxa-2(4,2)-thiazola-1(5,3)-indola-6(1,3)-pyridazinacycloundecaphane-1^2-yl)-2-((S)-1-methoxyethyl)pyridine 1-oxide]	0.47 nM	0.81 nM	1.34 nM	1.47 nM	6.3 nM	38.8 nM	
CCn1c(-c2cc(C#CCN3CCC(C#N)(CN)CC3)c[n+]([O-])c2[C@H](C)OC)c2c3cc(ccc31)-c1csc(n1)C[C@H](NC(=O)[C@H]1[C@@H]3COC[C@@H]31)C(=O)N1CCC[C@H](N1)C(=O)OCC(C)(C)C2 (atropisomer, axis not shown; (Ra)) [Compound Z64-1, (Ra)-3-((6^3S,4S,Z)-4-((1R,5S,6r)-3-oxabicyclo[3.1.0]hexane-6-carboxamido)-1^1-ethyl-10,10-dimethyl-5,7-dioxo-6^1,6^2,6^3,6^4,6^5,6^6-hexahydro-1^1H-8-oxa-2(4,2)-thiazola-1(5,3)-indola-6(1,3)-pyridazinacycloundecaphane-1^2-yl)-5-(3-(4-(aminomethyl)-4-cyanopiperidin-1-yl)prop-1-yn-1-yl)-2-((S)-1-methoxyethyl)pyridine 1-oxide]					4.1 nM	31.2 nM	IC50 (AsPC-1 cells; AsPC-1 cells (KRAS G12D), 3D, 2% FBS, 5 days, read-out: AsPC-1 AP IC50): 3.77 nM; IC50 (AsPC-1 p-ERK; AsPC-1 cells (KRAS G12D), 3 h incubation, read-out: AsPC-1 p-ERK IC50): 9.07 nM; IC50 (NCI-H441 cells): 5.1 nM; IC50 (H441 p-ERK): 5.07 nM
COCCn1c(-c2cc(C#CCN3CCN(C(=O)CO)CC3)cnc2[C@H](C)OC)c2c3cc(ccc31)-c1csc(n1)C[C@H](NC(=O)[C@H]1[C@@H]3COC[C@@H]31)C(=O)N1CCC[C@H](N1)C(=O)OCC(C)(C)C2 (atropisomer, axis not shown; (Sa)) [Compound Z31-2, (1R,5S,6r)-N-((6^3S,4S,Z)-(Sa)-1^2-(5-(3-(4-(2-hydroxyacetyl)piperazin-1-yl)prop-1-yn-1-yl)-2-((S)-1-methoxyethyl)pyridin-3-yl)-1^1-(methoxyethyl)-10,10-dimethyl-5,7-dioxo-6^1,6^2,6^3,6^4,6^5,6^6-hexahydro-1^1H-8-oxa-2(4,2)-thiazola-1(5,3)-indola-6(1,3)-pyridazinacycloundecaphane-4-yl)-3-oxabicyclo[3.1.0]hexane-6-carboxamide]							solubility at 24 h [1]: 22 µg/mL (≈ 23.1 µM)
COCCn1c(-c2cc(C#CCN3CCN(C(=O)CO)CC3)c[n+]([O-])c2[C@H](C)OC)c2c3cc(ccc31)-c1csc(n1)C[C@H](NC(=O)[C@H]1[C@@H]3COC[C@@H]31)C(=O)N1CCC[C@H](N1)C(=O)OCC(C)(C)C2 (atropisomer, axis not shown; (Sa)) [Compound Z38-2, (Sa)-3-((6^3S,4S,Z)-4-((1R,5S,6r)-3-oxabicyclo[3.1.0]hexane-6-carboxamido)-1^1-(2-methoxyethyl)-10,10-dimethyl-5,7-dioxo-6^1,6^2,6^3,6^4,6^5,6^6-hexahydro-11H-8-oxa-2(4,2)-thiazola-1(5,3)-indola-6(1,3)-pyridazinacycloundecaphane-1^2-yl)-5-(3-(4-(2-hydroxyacetyl)piperazin-1-yl)prop-1-yn-1-yl)-2-((S)-1-methoxyethyl)pyridine-1-oxide]							solubility at 24 h [1]: 176 µg/mL (≈ 182 µM)

Further lines, with some results ahead:

IC50 (AsPC-1 cells; [3])	IC50 (AsPC-1 p-ERK; [4])	IC50 (NCI-H441 cells; Homo sapiens, 120 h)	IC50 (H441 p-ERK; Homo sapiens)	SMILES	IC50 (KRAS G12V-cRAF; [2])	IC50 (KRAS WT-cRAF; [5])	also measured
0.32 nM	0.28 nM	0.16 nM	0.15 nM	CCn1c(-c2cc(C#CCN3CCS(=O)(=O)CC3)cnc2C(C)O)c2c3cc(ccc31)-c1csc(n1)CC(NC(=O)C1C(C)C1C)C(=O)N1CCCC(N1)C(=O)OCC(C)(C)C2 (atropisomer, axis not shown; (Ra)) [Compound Z60, (1r,2R,3S)-N-((6^3S,4S,Z)-(Ra)-1^2-(5-(3-(1,1-dioxidothiomorpholino)prop-1-yn-1-yl)-2-((S)-1-hydroxyethyl)pyridin-3-yl)-1^1-ethyl-10,10-dimethyl-5,7-dioxo-6^1,6^2,6^3,6^4,6^5,6^6-hexahydro-1^1H-8-oxa-2(4,2)-thiazola-1(5,3)-indola-6(1,3)-pyridazinacycloundecaphane-4-yl)-2,3-dimethylcyclopropane-1-carboxamide]			IC50 (KRAS G12V-cRAF; [6]): 15.2 nM; IC50 (KRAS WT-cRAF; [7]): 15.3 nM
		0.25 nM	0.14 nM	CCn1c(-c2cc(C#CCN3CCS(=O)(=O)CC3)cnc2[C@H](C)OC)c2c3cc(ccc31)-c1csc(n1)[C@@H](N)[C@H](NC(=O)[C@H]1[C@H](C)[C@@H]1C)C(=O)N1CCC[C@H](N1)C(=O)OCC(C)(C)C2 (atropisomer, axis not shown; (Ra)) [Compound Z65, (1r,2R,3S)-N-((6^3S,3S,4S,Z)-3-amino-(Ra)-1^2-(5-(3-(1,1-dioxidothiomorpholino)prop-1-yn-1-yl)-2-((S)-1-methoxyethyl)pyridin-3-yl)-1^1-ethyl-10,10-dimethyl-5,7-dioxo-6^1,6^2,6^3,6^4,6^5,6^6-hexahydro-11H-8-oxa-2(4,2)-thiazola-1(5,3)-indola-6(1,3)-pyridazinacycloundecaphane-4-yl)-2,3-dimethylcyclopropane-1-carboxamide]	5 nM	22.9 nM	IC50 (AsPC-1 cells; Homo sapiens, ASPC1, 120 h, read-out: AsPC-1 AP IC50(nM)): 0.15 nM; IC50 (AsPC-1 p-ERK; Homo sapiens, ASPC1, 3 h, read-out: AsPC-1 p-ERK IC50(nM)): 0.06 nM
0.09 nM	0.07 nM	0.21 nM	0.38 nM	COCCn1c(-c2cc(C#CCN3CCC(C#N)(CO)CC3)cnc2C(C)OC)c2c3cc(ccc31)-c1csc(n1)CC(NC(=O)C1C(C)C1C)C(=O)N1CCCC(N1)C(=O)OCC(C)(C)C2 [Compound Z29, (1r,2R,3S)-N-((6^3S,4S,Z)-1^2-(5-(3-(4-cyano-4-(hydroxymethyl)piperidin-1-yl)prop-1-yn-1-yl)-2-((S)-1-methoxyethyl)pyridin-3-yl)-1^1-(methoxyethyl)-10,10-dimethyl-5,7-dioxo-6^1,6^2,6^3,6^4,6^5,6^6-hexahydro-1^1H-8-oxa-2(4,2)-thiazola-1(5,3)-indola-6(1,3)-pyridazinacycloundecaphane-4-yl)-2,3-dimethylcyclopropane-1-carboxamide]			IC50 (KRAS G12V-cRAF; [6]): 18.5 nM; IC50 (KRAS WT-cRAF; [7]): 37 nM
